Data: patent publication US8563578B2, “Antitumor properties of NO modified protease inhibitors” (Onconox APS, priority 2008, dated 2013)

Tested on: B16 cells
Assay: Viability (MTT) of B16 cells with Saq-NO2 plus Akt/PI-3K inhibitor
Assay type: cell-based, mouse
Conditions: B16, 24 h, 18.8 μM Saq-NO2 with Akt VI (50μg/ml) or 3-MA (1 mM)
Description: Reduction of 3-4,5-dimethylthiazol-2-yl)-2,5-diphenyltetrazolium bromide (MTT) to formazan depends on mitochondrial activity of cultured cells, absorption of crystal violet dye correlates with the number of adherent, live cells, while the release of cytosolic lactate dehydrogenase (LDH) indicates the disruption of membrane integrity caracteristic for necrotic cells. The cells were seeded in flat-bottom 96-well plates in a final volume of 200 μl of culture medium containing different agents, and the assays were performed after 24 h incubation exactly as previously described (Mijatovic et al. 2004, Decker et al., 1998). Mitohondrial-dependent production of formazan and intensity of absorbed crystal violet by adherent cells were assessed by an automated microplate reader at 570 nm, while the pyruvate-mediated conversion of 2,4-dinitrophenylhydrazine into visible hydrazone precipitate in LDH assay was measured at 492 nm. The % of cytotoxicity as indicated by LDH release was calculated as: (E−C)/(T−C)×100, where E is the experimental absorbance of cell cultures, C is the control absorbance of cell-free culture medium, and T is the absorbance corresponding to the maximal (100%) LDH release of Triton-lysed cells.
FIG. 6. […] (C) B16 cells (1×10^4 cells/well) were incubated for 24 h with 18.8 μM Saq-NO2 with or without Akt VI (50μg/ml) or 3-MA (1 mM) and cell viability was assessed by MTT. […]

## Cn1cnc(=N)c2[nH]cnc21 [3-MA]
  tumor cell viability on addition of inhibitor to Saq-NO2: further decrease of tumor cell viability
